Data: patent US8461338B2, “(1R, 1′R)-atracurium salts separation process” (Chemagis Ltd., priority 2007, dated 2013)

How the values were obtained:
[1] = Stability of cisatracurium salt in different eluent mixtures (HPLC assay of isomer content over time); assay type: physicochemical; conditions: for % of the 1R-cis,1′R-cis isomer in the eluent composition: room temperature
Protocol: Table 6 illustrates how the amount of the 1R-cis,1′R-cis isomer changes at room temperature as a function of time in 3 different eluent mixtures. The (1R,1′R)-atracurium besylate isomer mixture was dissolved in the eluent and the resulting solutions were allowed to stand at room temperature for a period of 26 hours. After certain time intervals, as specified in Table 6, samples were withdrawn from each one of the 3 solutions and assayed by HPLC to determine the amount of the 1R-cis,1′R-cis isomer in the mixture.
The stability of the cisatracurium salt in the eluent mixture at 25° C. is presented in FIG. 1 whereby two plots are compared, that is, the plot describing the stability of the 1R-cis,1′R-cis isomer in the eluent mixture of 80:10:10 dichloromethane:DMSO:formic acid of the present invention (Column A in Table 6) vs. the plot of the dichloromethane:MeOH:benzenesulfonic acid eluent system, described in U.S. Pat. No. 5,556,978, example 2 (Column C in Table 6).

[2] = cited from earlier work

SMILES: COc1ccc(C[C@@H]2c3cc(OC)c(OC)cc3CC[N@+]2(C)CCC(=O)OCCCCCOC(=O)CC[N@@+]2(C)CCc3cc(OC)c(OC)cc3[C@H]2Cc2ccc(OC)c(OC)c2)cc1OC [1R-cis,1′R-cis isomer, (1R,1′R,2R,2′R)-2,2′-[1,5-pentanediylbis[oxy(3-oxo-3,1-propanediyl)]]bis[1-[(3,4-dimethoxyphenyl)methyl]-1,2,3,4-tetrahydro-6,7-dimethoxy-2-methyl-isoquinolinium dibenzenesulfonate]
- change of the content of the 1R-cis,1′R-cis isomer in the eluent mixture ([1]; dichloromethane:DMSO:formic acid eluent mixture, after 26 hours): remains unchanged
- decrease of the content of the 1R-cis,1′R-cis isomer in the eluent mixture ([1]; dichloromethane:methanol:benzenesulfonic acid eluent (U.S. 5,556,978, example 2), after 26 hours at room temperature): more than 3%
- % of the 1R-cis,1′R-cis isomer in the eluent composition ([1]; eluent A dichloromethane:DMSO:formic acid 80:10:10, 0 hours): 55.1%
- % of the 1R-cis,1′R-cis isomer in the eluent composition ([1]; eluent A dichloromethane:DMSO:formic acid 80:10:10, 2 hours): 55.4%
- % of the 1R-cis,1′R-cis isomer in the eluent composition ([1]; eluent A dichloromethane:DMSO:formic acid 80:10:10, 11 hours): 55.2%
- % of the 1R-cis,1′R-cis isomer in the eluent composition ([1]; eluent A dichloromethane:DMSO:formic acid 80:10:10, 12 hours): 55.1%
- % of the 1R-cis,1′R-cis isomer in the eluent composition ([1]; eluent A dichloromethane:DMSO:formic acid 80:10:10, 24 hours): 55.3%
- % of the 1R-cis,1′R-cis isomer in the eluent composition ([1]; eluent A dichloromethane:DMSO:formic acid 80:10:10, 26 hours): 55.4%
- % of the 1R-cis,1′R-cis isomer in the eluent composition ([1]; eluent B dichloromethane:DMSO:benzenesulfonic acid 90:10:0.006, 0 hours): 55.3%
- % of the 1R-cis,1′R-cis isomer in the eluent composition ([1]; eluent B dichloromethane:DMSO:benzenesulfonic acid 90:10:0.006, 2 hours): 55.3%
- % of the 1R-cis,1′R-cis isomer in the eluent composition ([1]; eluent B dichloromethane:DMSO:benzenesulfonic acid 90:10:0.006, 11 hours): 55.3%
- % of the 1R-cis,1′R-cis isomer in the eluent composition ([1]; eluent B dichloromethane:DMSO:benzenesulfonic acid 90:10:0.006, 12 hours): 55.3%
- % of the 1R-cis,1′R-cis isomer in the eluent composition ([1]; eluent B dichloromethane:DMSO:benzenesulfonic acid 90:10:0.006, 24 hours): 55.3%
- % of the 1R-cis,1′R-cis isomer in the eluent composition ([1]; eluent B dichloromethane:DMSO:benzenesulfonic acid 90:10:0.006, 26 hours): 55.2%
- % of the 1R-cis,1′R-cis isomer in the eluent composition ([1]; eluent C dichloromethane:methanol:benzenesulfonic acid 4000:500:0.5, 0 hours): 55.3%
- % of the 1R-cis,1′R-cis isomer in the eluent composition ([1]; eluent C dichloromethane:methanol:benzenesulfonic acid 4000:500:0.5, 2 hours): 54.9%
- % of the 1R-cis,1′R-cis isomer in the eluent composition ([1]; eluent C dichloromethane:methanol:benzenesulfonic acid 4000:500:0.5, 11 hours): 53.4%
- % of the 1R-cis,1′R-cis isomer in the eluent composition ([1]; eluent C dichloromethane:methanol:benzenesulfonic acid 4000:500:0.5, 12 hours): 53.7%
- % of the 1R-cis,1′R-cis isomer in the eluent composition ([1]; eluent C dichloromethane:methanol:benzenesulfonic acid 4000:500:0.5, 24 hours): 52.6%
- % of the 1R-cis,1′R-cis isomer in the eluent composition ([1]; eluent C dichloromethane:methanol:benzenesulfonic acid 4000:500:0.5, 26 hours): 52.0%
- rate of loss in potency ([2]; at 25° C. (77° F.)): approximately 5 % per month
- rate of loss of potency ([2]; under refrigeration (5° C.)): approximately 5 % per year
